One experiment addresses T1, AKT2 (Homo sapiens, UniProt P31751).
T1 construct: expressed in transfected cells; host or cells: HEK293
The experiment is described as follows: Live cell AKT2 target engagement by NanoBRET competitive probe displacement in HEK293 cells. In kind it is binding. As to conditions: 2 h at 37° C., read-out: AKT2 IC50. (In general: In BRET a luciferase serves as donor, and the signal depends on an acceptor being close.)

A further experiment has as its target T2, AKT1 WT (Homo sapiens, UniProt P31749).
T2 construct: expressed in transfected cells; host or cells: HEK293
The experiment is described as follows: Live cell AKT1 WT target engagement by NanoBRET competitive probe displacement in HEK293 cells. The experiment is classed as binding. As to conditions: 2 h at 37° C., read-out: AKT1 WT IC50.

Experiment [1] deals with LAPC4 prostate cancer cells, which express the AKT1 E17K allele. The experiment is described as follows: Antiproliferative effects in LAPC4 cells (CellTiter Glo, 72 h). In kind it is cell-based. As to conditions: Homo sapiens, LAPC4, 72 h, read-out: LAPC4 proliferation IC50. The method, then:
Antiproliferative Effects in LAPC4 Cells.
LAPC4 prostate cancer cells (Klein, K. A. et al. Nat Med 1997, 3, 402-408), which express the AKT1 E17K allele, were grown in IMDM media (Hyclone) supplemented with 12% FBS+1% P/S. To assess compound effects on growth, 1,000 cells/well were seeded in 384 well assay plates, incubated with compound dilutions dissolved in DMSO. After 72 h, intracellular ATP content was assessed with CellTiter Glo reagent (Promega) according to the manufacturer's instructions. IC50 values were calculated by fitting luminescence values to a log(inhibitor) vs. response Hill equation.
Background: In ATP-based viability assays light output follows the ATP content of the culture.

Another experiment deals with T3, AKT1 E17K (Homo sapiens, UniProt P31749, E17K).
T3 construct: expressed in transfected cells; host or cells: HEK293
The experiment is described as follows: Live cell AKT1 E17K target engagement by NanoBRET competitive probe displacement in HEK293 cells. As to conditions: 2 h at 37° C. In kind it is binding. The protocol: Determining live cell AKT1 E17K, AKT1 WT, and AKT2 target engagement by NanoBRET competitive probe displacement. Live cell target engagement assays were performed as described (Vasta, J. D. et al. Cell Chem Biol 2018, 25(11), 206-214). Briefly, HEK293 cells were transfected with plasmids encoding kinase-NanoLuciferase fusion proteins overnight. Cells were then treated with serial dilutions of compound and an ˜EC50 concentration of fluorescently-tagged ATP-competitive tracer (Promega). After incubation for 2 h at 37° C., luciferase substrate and extracellular luciferase inhibitor were added to all wells, and luminescent intensity at 460 nm and 600 nm were measured on a multimode plate-reader. The ratio of E600/E460 was calculated to give the tracer engagement signal (BRET). IC50 values were calculated by fitting BRET values to a log(inhibitor) vs. response Hill equation.

Where [2] appears, read: NanoBRET live cell target engagement, HEK293 cells.
Where [3] appears, read: NanoBRET competitive probe displacement, live HEK293 cells.

Where two headings read alike, the source gives them in different places. Some results are limits rather than exact numbers.

T1 sequence (P31751 whole entry): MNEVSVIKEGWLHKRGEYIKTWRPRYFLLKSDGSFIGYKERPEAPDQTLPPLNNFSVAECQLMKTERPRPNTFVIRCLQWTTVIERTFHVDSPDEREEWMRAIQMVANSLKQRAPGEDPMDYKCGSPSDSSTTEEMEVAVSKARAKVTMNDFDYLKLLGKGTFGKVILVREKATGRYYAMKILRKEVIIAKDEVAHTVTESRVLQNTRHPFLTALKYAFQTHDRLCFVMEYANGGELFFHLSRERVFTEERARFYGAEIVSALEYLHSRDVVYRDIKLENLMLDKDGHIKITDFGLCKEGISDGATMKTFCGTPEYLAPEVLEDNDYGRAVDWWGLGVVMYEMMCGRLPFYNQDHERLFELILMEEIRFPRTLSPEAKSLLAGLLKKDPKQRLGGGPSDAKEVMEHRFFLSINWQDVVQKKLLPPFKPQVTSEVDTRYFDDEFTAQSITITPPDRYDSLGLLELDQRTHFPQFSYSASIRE
T3 sequence (P31749 whole entry E17K): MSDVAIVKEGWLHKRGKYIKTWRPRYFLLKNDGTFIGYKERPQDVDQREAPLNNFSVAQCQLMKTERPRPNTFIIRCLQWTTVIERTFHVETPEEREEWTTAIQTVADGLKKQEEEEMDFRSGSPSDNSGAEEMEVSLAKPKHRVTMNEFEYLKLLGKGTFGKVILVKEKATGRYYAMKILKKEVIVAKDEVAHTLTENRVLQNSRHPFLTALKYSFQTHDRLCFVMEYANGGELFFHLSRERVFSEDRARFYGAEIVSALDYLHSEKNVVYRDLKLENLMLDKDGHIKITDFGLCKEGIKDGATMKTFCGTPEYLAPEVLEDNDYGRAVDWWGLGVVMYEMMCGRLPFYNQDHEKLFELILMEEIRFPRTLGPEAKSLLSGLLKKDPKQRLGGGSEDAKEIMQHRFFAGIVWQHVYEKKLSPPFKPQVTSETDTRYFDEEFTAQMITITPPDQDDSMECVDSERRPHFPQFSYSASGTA
T2 sequence (P31749 whole entry): as the sequence (P31749 whole entry E17K) above, with K17E counted along it

Regarding `Nc1ncccc1-c1nc2ccc(-n3cccn3)nc2n1-c1ccc2c(c1)CC[C@@H]2NC(=O)c1ccnc(OC(F)(F)F)c1` [Compound 64, (S)—N-(5-(2-(2-aminopyridin-3-yl)-5-(1H-pyrazol-1-yl)-3H-imidazo[4,5-b]pyridin-3-yl)-2,3-dihydro-1H-inden-1-yl)-2-(trifluoromethoxy)isonicotinamide], the IC50 amounted to 183 nM on AKT2 (setting [2]), 4.63 nM at AKT1 WT (setting [2]), 2620 nM in experiment [1] and 159 nM on AKT1 E17K (setting [2]).
The matching figures for `Nc1ncccc1-c1nc2ccc(-n3nccn3)nc2n1-c1ccc2c(c1)CC[C@@H]2NC(=O)c1cncnc1` [Compound 59, (S)—N-(5-(2-(2-aminopyridin-3-yl)-5-(2H-1,2,3-triazol-2-yl)-3H-imidazo[4,5-b]pyridin-3-yl)-2,3-dihydro-1H-inden-1-yl)pyrimidine-5-carboxamide]: 3430 nM, 48.8 nM, 3620 nM and 261 nM.
The matching figures for `CCc1cn([C@H]2CCc3cc(-n4c(-c5cccnc5N)nc5ccc(-n6cccn6)nc54)ccc32)nn1` [Compound 285]: 608 nM, 23.7 nM, 2230 nM and 39.5 nM.
Consider `COc1cc(C(=O)N[C@H]2CCc3cc(-n4c(-c5cccnc5N)nc5ccc(-n6cccn6)nc54)ccc32)c(C)cn1` [Compound 357], for which the IC50 at AKT2 (setting [2]) was 20 nM; on AKT1 WT (setting [2]) it was 5.79 nM; in experiment [1], 875 nM; at AKT1 E17K (setting [2]), 23.8 nM.
Regarding `Nc1ncccc1-c1nc2ccc(-n3nccn3)nc2n1-c1ccc2c(c1)CC[C@@H]2NC(=O)c1ccnc2c1CCO2` [Compound 286], the IC50 at AKT2 (setting [2]) turned out to be 589 nM; at AKT1 WT (setting [2]), 40.5 nM; in experiment [1], 4810 nM; at AKT1 E17K (setting [2]), 897 nM.
With `COc1cc(C(=O)N[C@H]2CCc3cc(-n4c(-c5ccccc5F)nc5ccc(-n6cccn6)nc54)ccc32)ccn1` [Compound 402], the IC50 on AKT2 (setting [3]) was found to be 477 nM; at AKT1 WT (setting [3]), 7.99 nM; in experiment [1], 3000 nM; at AKT1 E17K (setting [3]) it was 53.3 nM.
`COc1cc(C(=O)N[C@H]2CCc3cc(-n4c(-c5cccnc5N)nc5ccc(-n6cccn6)nc54)ccc32)cc(F)c1F` [Compound 3, (S)—N-(5-(2-(2-aminopyridin-3-yl)-5-(1H-pyrazol-1-yl)-3H-imidazo[4,5-b]pyridin-3-yl)-2,3-dihydro-1H-inden-1-yl)-3,4-difluoro-5-methoxybenzamide]: the IC50 on AKT2 (setting [2]) was 132 nM; on AKT1 WT (setting [2]) it was 7.21 nM; in experiment [1] it was 1710 nM; on AKT1 E17K (setting [2]), 120 nM.
`Cc1ccc(C(=O)N[C@H]2CCc3cc(-n4c(-c5cccnc5N)nc5ccc(-n6ccc(F)n6)nc54)ccc32)cn1` [Compound 52, (S)—N-(5-(2-(2-aminopyridin-3-yl)-5-(3-fluoro-1H-pyrazol-1-yl)-3H-imidazo[4,5-b]pyridin-3-yl)-2,3-dihydro-1H-inden-1-yl)-6-methylnicotinamide]: the IC50 at AKT2 (setting [2]) is 128 nM; at AKT1 WT (setting [2]), 11.6 nM; in experiment [1], 915 nM; at AKT1 E17K (setting [2]), 357 nM.
The matching figures for `Nc1ncccc1-c1nc2ccc(-n3cccn3)nc2n1-c1ccc2c(c1)CC[C@@H]2NC1CCN(C(=O)c2cccnc2)CC1` [Compound 359]: greater than 10000 nM, 231 nM, greater than 10000 nM and greater than 1000 nM.
For `Nc1ncccc1-c1nc2ccc(-n3cccn3)nc2n1-c1ccc2c(c1)CC[C@@H]2NC(=O)Cc1ccn[nH]1` [Compound 51, (S)—N-(5-(2-(2-aminopyridin-3-yl)-5-(1H-pyrazol-1-yl)-3H-imidazo[4,5-b]pyridin-3-yl)-2,3-dihydro-1H-inden-1-yl)-2-(1H-pyrazol-5-yl)acetamide], the IC50 at AKT2 (setting [2]) is 4560 nM; at AKT1 WT (setting [2]), 137 nM; in experiment [1], greater than 10000 nM; on AKT1 E17K (setting [2]), greater than 1000 nM.
Take `Nc1ncccc1-c1nc2ccc(-n3ccc(F)n3)nc2n1-c1ccc2c(c1)CC[C@@H]2NC(=O)c1ccc(C(F)F)nc1` [Compound 53, (S)—N-(5-(2-(2-aminopyridin-3-yl)-5-(3-fluoro-1H-pyrazol-1-yl)-3H-imidazo[4,5-b]pyridin-3-yl)-2,3-dihydro-1H-inden-1-yl)-6-(difluoromethyl)nicotinamide]: the IC50 on AKT2 (setting [2]) worked out at 118 nM; at AKT1 WT (setting [2]), 18.1 nM; in experiment [1], 1120 nM; at AKT1 E17K (setting [2]), 142 nM.
Consider `COc1cc(C(=O)N[C@H]2CCc3cc(-n4c(-c5cccnc5N)nc5ccc(-n6nccn6)nc54)ccc32)cnn1` [Compound 426], for which the IC50 on AKT2 (setting [3]) is 360 nM; at AKT1 WT (setting [3]), 3.17 nM; in experiment [1], 1510 nM; on AKT1 E17K (setting [3]), 59 nM.
Consider `COc1nccc(C(=O)N[C@H]2CCc3cc(-n4c(-c5cccnc5N)nc5ccc(-n6cccn6)nc54)ccc32)c1OC` [Compound 355], for which the IC50 at AKT2 (setting [2]) was found to be 74.4 nM; on AKT1 WT (setting [2]), 16.8 nM; in experiment [1], 2770 nM; on AKT1 E17K (setting [2]), 734 nM.
Take `Nc1ncccc1-c1nc2ccc(-n3cccn3)nc2n1-c1ccc2c(c1)CC(F)[C@@H]2NC1CCN(C(=O)C2CC2)CC1` (single isomer, unassigned) [Compound 386]: the IC50 on AKT2 (setting [2]) is 1310 nM; on AKT1 WT (setting [2]), 17.6 nM; in experiment [1], greater than 7160 nM; on AKT1 E17K (setting [2]), greater than 487 nM.
In the case of `CC(=O)N[C@H]1CCc2cc(-n3c(-c4cccnc4N)nc4ccc(-n5cccn5)nc43)ccc21` [Compound 1, (S)—N-(5-(2-(2-aminopyridin-3-yl)-5-(1H-pyrazol-1-yl)-3H-imidazo[4,5-b]pyridin-3-yl)-2,3-dihydro-1H-inden-1-yl)acetamide], the IC50 was 4310 nM on AKT2 (setting [2]), greater than 737 nM at AKT1 WT (setting [2]) and greater than 1000 nM on AKT1 E17K (setting [2]).
`N#Cc1nccc(N2CC(N[C@H]3CCc4cc(-n5c(-c6cccnc6N)nc6ccc(-n7cccn7)nc65)ccc43)C2)n1` [Compound 581]: the IC50 at AKT2 (setting [3]) amounted to 38.4 nM; at AKT1 WT (setting [3]), 6.51 nM; on AKT1 E17K (setting [3]), 20.8 nM.
With `N#Cc1nccc(N2CCC(N[C@@H]3c4ccc(-n5c(-c6cccnc6N)nc6ccc(-n7cccn7)nc65)cc4CC3F)CC2)n1` (some centres unmarked) [Compound 579], the IC50 at AKT2 (setting [3]) turned out to be 26.6 nM; at AKT1 WT (setting [3]) it was 5.42 nM; on AKT1 E17K (setting [3]) it was 9.88 nM.
The matching figures for `COc1cnc(C#N)nc1N1CCC(N[C@H]2CCc3cc(-n4c(-c5cccnc5N)nc5ccc(-n6cccn6)nc54)ccc32)CC1` [Cpd 586]: 43 nM, 6.98 nM and 17.3 nM.
The matching figures for `COc1cc(-c2ccc3nc(-c4cccnc4N)n(-c4ccc5c(c4)CC(F)[C@@H]5NC4CCN(C(=O)C5CC5)CC4)c3n2)ccn1` (some centres unmarked) [Compound 543]: 1210 nM, 81 nM and 526 nM.
As to `Cc1cc(N2CCC(N[C@H]3CCc4cc(-n5c(-c6cccnc6N)nc6ccc(-n7cccn7)nc65)ccc43)CC2)nc(C#N)n1` [Cpd 584, (S)-4-(4-((5-(2-(2-aminopyridin-3-yl)-5-(1H-pyrazol-1-yl)-3H-imidazo[4,5-b]pyridin-3-yl)-2,3-dihydro-1H-inden-1-yl)amino)piperidin-1-yl)-6-methylpyrimidine-2-carbonitrile], the IC50 turned out to be 62.5 nM on AKT2 (setting [3]), 6.1 nM on AKT1 WT (setting [3]) and 11.8 nM at AKT1 E17K (setting [3]).

These data come from patent US12624034B2, “Non-covalent modifiers of AKT1 and uses thereof” (Terremoto Biosciences, Inc., priority 2023, dated 2026).
